Where only a bound is given, the exact number is not on record here.

The first assay concerns Aβ1-42 production. Briefly: Cellular assay for inhibition of Aβ1-42 production (H4 APP751 SWE clone 8.20). To be noted: 19 h, H4 APP751 SWE clone 8.20 cells, 19 h incubation; read-out: Activity Rating (Aβ42 cellular IC50, given as a number). It is filed as cell-based. The procedure: Cellular assays for inhibition of Aβ1-40 and Aβ1-42 production
H4 cells stably transfected with APP751 containing the Swedish mutation (H4 APP751 SWE clone 8.20, developed at BMS) were maintained in log phase through twice weekly passage at a 1:20 split. For IC50 determinations, 30 μl cells (1.5×10^4 cells/well) in DMEM media containing 0.0125% BSA (Sigma A8412) were plated directly into 384-well compound plates (Costar 3709) containing 0.1 μl serially diluted compound in DMSO. Following incubation for 19 h in 5% CO2 at 37° C., plates were briefly centrifuged (1000 rpm, 5 min). A 10 μl aliquot from each well was transferred to a second assay plate (Costar 3709) for Aβ40 measurements. Antibody cocktails were freshly prepared by dilution into 40 mM Tris-HCl (pH 7.4) with 0.2% BSA and added to assay plates. For Aβ42 measurements, antibodies specific for the Aβ42 neoepitope (565, developed at BMS; conjugated to the Wallac reagent (Perkin Elmer)) and the N-terminal sequence of Aβ peptide (26D6, developed at SIBIA; conjugated to APC (Perkin Elmer)) were mixed and 20 μl of the mixture was added to each well of the incubated cell plate yielding a final concentration of 0.8 ng/well 565 and 75 ng/well 26D6. For the Aβ40 measurements, antibodies specific for the Aβ40 neoepitope (TSD, developed at BMS; conjugated to the Wallac reagent (Perkin Elmer)) and 26D6 as described above were mixed and 20 μl of the mixture was added to the 10 μl aliquots which had been removed previously from the cell plate yielding a final concentration of 1.6 ng/well TSD and 17.5 ng/well 26D6. Assay plates containing antibodies were sealed with aluminum foil and incubated overnight at 4° C. Signal was determined using a Viewlux counter (Perkin Elmer) and IC50 values determined using curve fitting in CurveMaster (Excel Fit based).
As usually defined, the IC50 is the concentration needed to halve the response being measured. With `Cc1ncnn1-c1ccc(Nc2nc3n(n2)CC[C@H](O)C[C@@H]3c2ccc(F)cc2)cc1F` (relative stereo) [Example 156, rel-(7R,9R)-2-(3-fluoro-4-(5-methyl-1H-1,2,4-triazol-1-yl)phenylamino)-9-(4-fluorophenyl)-6,7,8,9-tetrahydro-5H-[1,2,4]triazolo[1,5-a]azepin-7-ol 2,2,2-trifluoroacetate], the IC50 is 122 nM.
As for `COc1cc(Nc2nc3n(n2)CC=CC[C@H]3c2ccc(F)cc2)ccc1-n1cnc(Cl)c1` (single isomer, unassigned) [Example 2], the IC50 came to 9 nM.
With `Cc1ncnn1-c1ccc(Nc2nc3n(n2)CCC[C@H]3c2ccc(F)cc2)cc1F` (single isomer, unassigned) [Example 14], the IC50 is 53 nM.
Turning to `COc1cc(Nc2nc3n(n2)CCCC[C@@H]3c2ccc(F)cc2)c(F)cc1-n1cnc(C)n1` (single isomer, unassigned) [Example 30], the IC50 was determined as 47 nM.
As to `COc1cc(Nc2nc3n(n2)CCCC[C@H]3c2cc(F)c(F)c(F)c2)ccc1-n1cnc(Cl)c1` (single isomer, unassigned) [Example 51], the IC50 worked out at 4 nM.
In the case of `Cc1ncn(-c2ccc(Nc3nc4n(n3)CCCC[C@H]4c3ccc(OC(F)(F)F)cc3)cc2F)n1` (single isomer, unassigned) [Example 97], the IC50 worked out at 9 nM.

The assay is the same for the next values; noted with them: 19 h, H4 APP751 SWE clone 8.20 cells, 19 h incubation; read-out: Activity Rating (based on Aβ42 cellular IC50 values).
In the case of `COc1cc(Nc2nc3n(n2)CC[C@](C)(O)C[C@@H]3c2ccc(OC(F)(F)F)cc2)ccc1-n1cnc(Cl)c1` (relative stereo) [Example 152, rel-(7R,9R)-2-(4-(4-chloro-1H-imidazol-1-yl)-3-methoxyphenylamino)-7-methyl-9-(4-(trifluoromethoxy)phenyl)-6,7,8,9-tetrahydro-5H-[1,2,4]triazolo[1,5-a]azepin-7-ol 2,2,2-trifluoroacetate], the 50% inhibitory concentration (IC50) is less than 10 nM.
Regarding `COc1cc(Nc2nc3n(n2)CC[C@@](C)(O)C[C@@H]3c2ccc(OC(F)(F)F)cc2)ccc1-n1cnc(Cl)c1` (relative stereo) [Example 153, rel-(7S,9R)-2-(4-(4-chloro-1H-imidazol-1-yl)-3-methoxyphenylamino)-7-methyl-9-(4-(trifluoromethoxy)phenyl)-6,7,8,9-tetrahydro-5H-[1,2,4]triazolo[1,5-a]azepin-7-ol 2,2,2-trifluoroacetate], the IC50 was less than 10 nM.
Still for that read-out and setting: the result for `Cc1ncn(-c2ccc(Nc3nc4n(n3)CC[C@](C)(O)C[C@@H]4c3ccc(F)cc3)cc2F)n1` (relative stereo) [Example 154, rel-(7R,9R)-2-(3-fluoro-4-(3-methyl-1H-1,2,4-triazol-1-yl)phenylamino)-9-(4-fluorophenyl)-7-methyl-6,7,8,9-tetrahydro-5H-[1,2,4]triazolo[1,5-a]azepin-7-ol 2,2,2-trifluoroacetate] reads 10 to 100 nM; that for `Cc1ncn(-c2ccc(Nc3nc4n(n3)CC[C@@](C)(O)C[C@@H]4c3ccc(F)cc3)cc2F)n1` (relative stereo) [Example 155, rel-(7S,9R)-2-(3-fluoro-4-(3-methyl-1H-1,2,4-triazol-1-yl)phenylamino)-9-(4-fluorophenyl)-7-methyl-6,7,8,9-tetrahydro-5H-[1,2,4]triazolo[1,5-a]azepin-7-ol 2,2,2-trifluoroacetate], 10 to 100 nM.
Still for that read-out and setting: with `Cc1ncnn1-c1ccc(Nc2nc3n(n2)CC[C@@H](O)C[C@@H]3c2ccc(F)cc2)cc1F` (relative stereo) [Example 157, rel-(7S,9R)-2-(3-fluoro-4-(5-methyl-1H-1,2,4-triazol-1-yl)phenylamino)-9-(4-fluorophenyl)-6,7,8,9-tetrahydro-5H-[1,2,4]triazolo[1,5-a]azepin-7-ol 2,2,2-trifluoroacetate] the figure was 10 to 100 nM; with `COc1cc(Nc2nc3n(n2)CC=CC[C@@H]3c2ccc(F)cc2)ccc1-n1cnc(Cl)c1` (single isomer, unassigned) [Example 3], less than 10 nM.
Turning to `COc1cc(Nc2nc3n(n2)CC=CC[C@H]3c2ccc(F)cc2)ccc1-n1cnc(C)n1` (single isomer, unassigned) [Example 5], the IC50 lay in the range of 10 to 100 nM.
On to `COc1cc(Nc2nc3n(n2)CC=CC[C@@H]3c2ccc(F)cc2)ccc1-n1cnc(C)n1` (single isomer, unassigned) [Example 6], for which the IC50 is 10 to 100 nM.
In the case of `Cc1ncnn1-c1ccc(Nc2nc3n(n2)CCC[C@@H]3c2ccc(F)cc2)cc1F` (single isomer, unassigned) [Example 15], the IC50 fell in the range of 100 to 1000 nM.
As to `COc1cc(Nc2nc3n(n2)CCCC[C@H]3c2ccc(F)cc2)ccc1-n1cnc(Cl)c1` (single isomer, unassigned) [Example 17], the IC50 is less than 10 nM.
In the case of `COc1cc(Nc2nc3n(n2)CCCC[C@@H]3c2ccc(F)cc2)ccc1-n1cnc(Cl)c1` (single isomer, unassigned) [Example 18], the IC50 was 10 to 100 nM.
Still for that read-out and setting: with `COc1cc(Nc2nc3n(n2)CCCC[C@H]3c2ccc(Cl)cc2Cl)ccc1-n1cnc(Cl)c1` (single isomer, unassigned) [Example 20] the figure was less than 10 nM; with `COc1cc(Nc2nc3n(n2)CCCC[C@@H]3c2ccc(Cl)cc2Cl)ccc1-n1cnc(Cl)c1` (single isomer, unassigned) [Example 21], less than 10 nM.
With `COc1cc(Nc2nc3n(n2)CCCC[C@@H]3c2ccc(F)c(F)c2)ccc1-n1cnc(Cl)c1` (single isomer, unassigned) [Example 24], the IC50 was less than 10 nM.
For `Cc1ncn(-c2ccc(Nc3nc4n(n3)CCCC[C@H]4c3ccc(F)cc3)cc2F)n1` (single isomer, unassigned) [Example 26], the IC50 is 10 to 100 nM.
Turning to `Cc1ncn(-c2ccc(Nc3nc4n(n3)CCCC[C@@H]4c3ccc(F)cc3)cc2F)n1` (single isomer, unassigned) [Example 27], the IC50 was in the range of 10 to 100 nM.
Take `COc1cc(Nc2nc3n(n2)CCCC[C@H]3c2ccc(F)cc2F)ccc1-n1cnc(Cl)c1` (single isomer, unassigned) [Example 36]: the IC50 is less than 10 nM.
Same read-out and setting: the result for `COc1cc(Nc2nc3n(n2)CCCC[C@@H]3c2ccc(F)cc2F)ccc1-n1cnc(Cl)c1` (single isomer, unassigned) [Example 37] reads less than 10 nM; that for `COc1cc(Nc2nc3n(n2)CCCC[C@H]3c2cc(F)cc(F)c2)ccc1-n1cnc(Cl)c1` (single isomer, unassigned) [Example 39], less than 10 nM; that for `COc1cc(Nc2nc3n(n2)CCCC[C@@H]3c2cc(F)cc(F)c2)ccc1-n1cnc(Cl)c1` (single isomer, unassigned) [Example 40], 10 to 100 nM.
Regarding `COc1cc(Nc2nc3n(n2)CCCC[C@H]3c2cccc(F)c2)ccc1-n1cnc(Cl)c1` (single isomer, unassigned) [Example 45], the IC50 is less than 10 nM.
The same measure, in the same setting: with `COc1cc(Nc2nc3n(n2)CCCC[C@@H]3c2cccc(F)c2)ccc1-n1cnc(Cl)c1` (single isomer, unassigned) [Example 46] the figure was 10 to 100 nM.
Same read-out and setting: the result for `COc1cc(Nc2nc3n(n2)CCCC[C@@H]3c2cc(F)c(F)c(F)c2)ccc1-n1cnc(Cl)c1` (single isomer, unassigned) [Example 52] reads less than 10 nM; that for `COc1cc(Nc2nc3n(n2)CCCC[C@H]3c2cccc(Cl)c2)ccc1-n1cnc(Cl)c1` (single isomer, unassigned) [Example 54], less than 10 nM.
As to `COc1cc(Nc2nc3n(n2)CCCC[C@@H]3c2cccc(Cl)c2)ccc1-n1cnc(Cl)c1` (single isomer, unassigned) [Example 55], the IC50 is less than 10 nM.
`COc1cc(Nc2nc3n(n2)CCCC[C@H]3c2ccccc2F)ccc1-n1cnc(Cl)c1` (single isomer, unassigned) [Example 58]: the IC50 is less than 10 nM.
As for `COc1cc(Nc2nc3n(n2)CCCC[C@@H]3c2ccccc2F)ccc1-n1cnc(Cl)c1` (single isomer, unassigned) [Example 59], the IC50 is less than 10 nM.
The same measure, in the same setting: the result for `COc1cc(Nc2nc3c(s2)CCC[C@H]3c2ccccc2)ccc1-n1cnc(Cl)c1` (single isomer, unassigned) [Example 69] reads 10 to 100 nM; that for `COc1cc(Nc2nc3c(s2)CCC[C@@H]3c2ccccc2)ccc1-n1cnc(Cl)c1` (single isomer, unassigned) [Example 70], 100 to 1000 nM.
On the same count and under the same terms, with `COc1cc(Nc2nc3n(n2)CCCC[C@H]3c2ccc(F)cc2)ccc1-n1cnc(Cl)n1` (single isomer, unassigned) [Example 87] the figure was less than 10 nM; with `COc1cc(Nc2nc3n(n2)CCCC[C@@H]3c2ccc(F)cc2)ccc1-n1cnc(Cl)n1` (single isomer, unassigned) [Example 88], 10 to 100 nM.
For `Cc1ncnn1-c1ccc(Nc2nc3n(n2)CCCC[C@H]3c2ccc(F)cc2)cc1F` (single isomer, unassigned) [Example 94], the IC50 is 10 to 100 nM.
Consider `Cc1ncn(-c2ccc(Nc3nc4n(n3)CCCC[C@@H]4c3ccc(OC(F)(F)F)cc3)cc2F)n1` (single isomer, unassigned) [Example 98], for which the IC50 lay in the range of 10 to 100 nM.

Values taken from patent publication US8349880B2, “Bicyclic compounds for the reduction of beta-amyloid production” (Bristol-Myers Squibb Company, priority 2009, dated 2013).
